Test results as given in US12667584B2, “Adenosine analog and its use in regulating the circadian clock” (NATIONAL INSTITUTE OF BIOLOGICAL SCIENCES, BEIJING, priority 2017, dated 2026).
Entries after “also recorded” stand apart in the source; their conditions may differ.

Tests used:
[1] = tested on: SCN culture slice; test: Ex vivo SCN slice culture from Per2::LUC mice, lumicycle; type: cell-based, mouse
From the text: Tissue culture, drug treatment and Real-Time Monitoring of Circadian Oscillations: 8 week-old male mPer2 Luciferase knockin mice were Sacrificed cervical dislocation. Then wipe the skin and neck with cotton containing 70% ethanol in a sterile hood. For SCN slice culture, firstly remove the eye balls from the head with scissors, decapitate and cut the skin. Then open the skull, remove all bone until the olfactory bulbs can be seen, cut the optic nerve between the olfactory bulbs and the hemispheres, and finally harvest the whole brain into ice cold HBSS. Trim the brain in HBSS by removing the cerebellum and olfactory bulbs. Attach the brain to a sample tray by glue with the rostral tip upwards and ventral surface closest to the cutting blade, then immediately fill the tray with ice cold HBSS and set the tray to the vibratome. Set the vibratome frequency at the maximum and the speed to the medium. To reach the SCN area quickly, the start cutting off thicker sections should be 500-800 μm. Reduce the sections thicker to 100 μm when the optic chiasm becomes wider. When the two SCN nuclei start to appear, collect the slice with transfer pipettes and check slices under dissecting microscope. […] Data was extract and analyzed with LumiCycle Analysis software. […]

[2] = tested on: C57BL/6j mice; test: Wheel running jet-lag experiment, 8 h phase advance or delay; type: in vivo, mouse
Description: Wheel running experiment: Male C57Bj/6 mice at 7 w old were purchased from the Nanjing Biomedical Research Institute of Nanjing University introduced from Jackson Laboratory, housed in individually wheel-running cage in a temperature- and humidity-controlled SPF facility, with ad libitum access to food and water. The animals were entrained under 12 h light/dark photoperiod for two weeks to synchronize the endogenous circadian clock of the mice to the ambient light-dark cycle, light intensity is about 50˜100 lux. After synchronization, light-dark cycles were 8-hr phase-advanced or phase-delayed. On the day of light-dark cycle was shifted advance, mice were firstly fasted at CT 3, then 15 mg/kg bw CA03, 15 and 30 mg/kg bw pro-CA03, 15 and 30 mg/kg bw pro-CA04 or DMSO were intraperitoneal injection at CT 12, and light on time (CT 0) was shifted from 7 am to 11 pm), finally re-feed and inject drug again at CT 23 of the old light-dark cycle. CA03 and pro-CA04 were firstly dissolved in DMSO to the concentration of 200 μg/μl, then dilute with saline to the final concentration of 1000 μg/ml for intraperitoneal injection. Pro-03 was firstly dissolved in DMSO to the concentration of 200 μg/μl, then dilute with 2% tween80 (in sterilized water) to the final concentration of 1000 μg/ml for intraperitoneal injection. On the day of light-dark cycle was shifted delayed, mice were firstly fasted at ZT 3, then 15 mg/kg bw CA03, 15 and 30 mg/kg bw pro-CA03, 15 and 30 mg/kg bw pro-CA04 or DMSO were intraperitoneal injection at CT 12, and light off time (CT12) was shifted from […] to 3 am), finally re-feed and inject drug again at CT 23 of the old light-dark cycle. Locomotor activity was recorded in 10-min bins wheel running (Actimetrics), and the data obtained were analysed with Clocklab software (Actimetrics). All animal experimental procedures were performed in accordance with the protocol approved by the Institutional Animal Care and Usage Committee (IACUC) of the National Institute of Biological Sciences, Beijing.
Under a standard jet-lag protocol {Yamaguchi, 2013}, wild-type C57BL/6j mice usually take ˜10 d to adapt to 8 h phase advance. […] Similarly, the drug treated mice adapt faster to the phase delay (FIG. 2D&2E).
To test whether cordycepin function in vivo, we firstly tested luciferase signal level by live imaging of Per2:LUC mice after intraperitoneal injection of 15 mg/kg cordycepin or DMSO. We found cordycepin induce more than 4 folds increase of luciferase signal in liver when compared with DMSO control (A). […] We also reconfirmed endogenous transcription rate of core clock genes by measuring the pre-mRNA with qPCR in the liver (B). We examined RRE genes (including Bmal1, Clock, Npas2, Cry1 and Nfil3), internal control genes (including Gapdh, Tbp and Actin) and E-box genes (including Per1, Per2, Dbp and Nr1d1). We designed at least 2 primers for each gene. […] Prior evaluation the jet-leg cure ability of cordycepin, we detected whether cordycepin and it's prodrug pro-CA03 can penetrate BBB. We injected cordycepin or pro-CA03 via tail vein and time course sampled CSF and analyzed cordycepin pro-CA03 level with HPLC-MASS method. […] Finally we evaluated the jet-leg cure ability of cordycepin, pro-CA03 and Pro-CA04 with mice behavioral experiment. Wild-type C57BL/6j mice typically take ˜10 days to adapt to an 8 h phase advance. […]

## Nc1ncnc2c1ncn2[C@@H]1O[C@H](CO)C[C@H]1O [Cordycepin, 3′-deoxy-adenosine]
[1]
  clock phase of SCN slice: significant phase-shift with lower amplitude; also recorded: totally antiphase
[2]; DMSO 6 days
  adaptation time in phase-delay assay: 3 days
[2]; twice injection, DMSO ~10 d
  adaptation time to 8 h phase advance: 4 days
